Like-named read-outs stand apart in the source and are kept apart here. Blank lines part the entries; values can stand above or below the molecule they belong to.
Assays:
[1] = in vivo; details: female, WAG/RijCmcr, rat, plasma, urine
From the text: (§1) WAG/RijCmcr female rats were irradiated without the use of anesthetics at 11–12 weeks of age weighing ∼155 g. All irradiations were done between 8–11 am. For leg-out PBI, non-anesthetized rats were immobilized in a plastic jig and irradiated using a XRAD-320 orthovoltage x-ray system (Precision X-Ray, North Branford, Connecticut). […] During the irradiation, each rat was confined in a chamber which allows irradiation of two rats simultaneously. One hind limb of each rat was carefully externalized from the chamber and shielded with a 0.25-inch lead block. The dose to this leg was 2 Gy. The dual-chambered jig was placed on a plane perpendicular to the beam direction, with distance from source to the midline of rats set at 61 cm. […] The irradiation field at midline was large enough to cover both chambers with adequate (at least 2 cm) margins. Supportive care was provided to rats receiving 13 Gy. Supportive care consisted of delivery of the antibiotic Enrofloxacin (10 mg/kg/day) from days 1–14 in the drinking water, and hydration by daily subcutaneous injection of saline (40 ml/kg/day) from days 3–7, post-irradiation.
(§2) Aliquots (0.1 ml) of rat plasma or urine were extracted with ∼3 volumes of cold acidified methanol spiked with enalaprilat as an internal standard (0.3 ml of methanol, 20 µL of 0.1 M HCl and 3 µL of 0.1 mM enalaprilat), mixed well and allowed to stand for 5 min before centrifugation at 14,000 rpm for 5 min at 4°C. […] Samples were injected into C18 reversed phase column (Waters Cortecs UPLC C18 2.1 mm × 50 mm, 1.6 µm) thermostated at 40°C and equilibrated with 0.1% formic acid in water:acetonitrile (95:5).
(§3) Pharmacokinetic (PK) modeling was performed on the data to measure distribution of the drug in different tissues (compartments). The two compartments fitted with observed data were the central compartment (plasma) and the peripheral compartment (internal tissues such as lungs, liver, kidneys, etc.). Administration by gavage was modeled using the gut as a depot to include bioavailability (F) and absorption (k a) from the gut (Figure 1). […] Clearance out of the system was modeled by Cl, the renal clearance rate via urine (Figure 1). The model was fitted using the open-source R package Nonlinear Mixed-Effects Model Development and Simulation (nlmixr) along with related R packages.
(§4) An additive error with compartment-specific variance was assumed for the plasma, peripheral, and urine compartments. Multiple measurements from the same animal were linked via a log-normally distributed multiplicative random effect on the compartment volumes V 2 and V 3.
(§5) The observed measurements are the concentration in plasma, Cplasma and the (cumulative) amount in the urine, Yurine .
(§6) The model was fitted to the plasma and urine data, the accumulation in the peripheral compartment was inferred from the model.

[2] = control (nonirradiated) rats; base parameter estimate, two-compartment model
From the text: as §1, §2, §3, §4, §5, §6

[3] = Lisinopril excreted in 24 h urine, measured by LC-MS/MS; type: in vivo, WAG/RijCmcr rats
Experimental: Urine was collected in a Nalgene rat metabolic cage. A rat was placed in the metabolic cage with access to food and water for 24 h. After 24 h urine volume was recorded, and an aliquot was frozen and stored at −80°C for LC-MS analyses.
Plasma was measured 1–4 times in each animal, at 0, 0.5, 1, 1.5, 2, 2.5, 3, 4, 5, 6, 8, 24 or 48 h after oral gavage, and 5 min, 1.5 and 24 h after intravenous injection.
Aliquots (0.1 ml) of rat plasma or urine were extracted with ∼3 volumes of cold acidified methanol spiked with enalaprilat as an internal standard (0.3 ml of methanol, 20 µL of 0.1 M HCl and 3 µL of 0.1 mM enalaprilat), mixed well and allowed to stand for 5 min before centrifugation at 14,000 rpm for 5 min at 4°C. The supernatant was passed through a Phree phospholipid removal plate (Phenomenex) and the eluate dried completely under a flux of air and reconstituted with 120 µL of LC-MS mobile phase (5% acetonitrile, 95% water, 0.1% formic acid), spiked with 1 µM of lisinopril-d5 used as a second internal standard. […] Samples were injected into C18 reversed phase column (Waters Cortecs UPLC C18 2.1 mm × 50 mm, 1.6 µm) thermostated at 40°C and equilibrated with 0.1% formic acid in water:acetonitrile (95:5). Compounds were eluted by increasing the concentration of acetonitrile in the mobile phase from 5 to 40% over 2.5 min at the flow rate of 0.5 ml/min.

[4] = parameters: method as in Beermann 1988; details: humans; ref Beermann 1988; cited from earlier work
[5] = in vivo; details: female, WAG/RijCmcr, rat, plasma, po
[6] = test system: radiation pneumonitis; parameters: method as in Gao et al., 2013; details: delivered as late as 35 days after radiation; ref Gao et al., 2013; cited from earlier work

- Inter-individual variation (irradiated rats, 90 min after IV injection): 1.8 fold
- Inter-individual variation (irradiated rats, 90 min after oral gavage (data not shown)): 2.7 fold
- Inter-individual variation (non-irradiated rats, 90 min after oral gavage (data not shown)): 1.6 fold
- Inter-individual variation (nonirradiated rats injected with lisinopril (result not shown)): 3-4 fold
- CL renal [1]: 0.15 mL/min
- half-life ([1]; Model-based circulating half-life, irradiated rats): 2.5 h
- half-life ([1]; Model-based circulating half-life, non-irradiated rats): 2.8 h
- half-life ([1]; Model-based estimate of terminal half-life, irradiated rats): 83 h
- half-life ([1]; Model-based estimate of terminal half-life, nonirradiated rats): 65 h
- bioavailability ([1]; oral): 25.4%
- bioavailability ([1]; po): 19.2%
- Central volume [2]: 0.008 L
- Peripheral volume (lung) [2]: 0.513 L
- Measured lisinopril excreted in urine per 300 µg administered, geometric mean ([3]; IV, no radiation): 0.46 µmol
- Measured lisinopril excreted in urine per 300 µg administered, geometric mean ([3]; IV, radiation): 0.37 µmol
- Measured lisinopril excreted in urine per 300 µg administered, geometric mean ([3]; gavage, no radiation): 0.072 µmol
- Measured lisinopril excreted in urine per 300 µg administered, geometric mean ([3]; gavage, radiation): 0.11 µmol
- Tmax [5]: 2 to 3 h
Compound: NCCCC[C@H](N[C@@H](CCc1ccccc1)C(=O)O)C(=O)N1CCC[C@H]1C(=O)O [lisinopril]
- Half-life of prolonged terminal phase [4]: 46.7 h
- Time of peak serum levels [4]: 6 to 8 h

Compound: CCOC(=O)[C@H](CCc1ccccc1)N[C@@H](C)C(=O)N1CCC[C@H]1C(=O)O [enalapril]
- Efficacy to mitigate radiation pneumonitis [6]: had efficacy to mitigate radiation pneumonitis

— paper PMC8111401 (Frontiers in Pharmacology, 2021)
